Measurements as given in patent US9810690B2, “Method for screening inhibitors of Ras” (Araxes Pharma LLC, priority 2015, dated 2017).

How the values were obtained:
RALA G23C = target: T1, RALA G23C (Homo sapiens, UniProt P11233, G23C); assay: Rate constant of covalent reaction of competition probes with RALA mutant (mass spectrometry); type: binding
T1 construct: (residues 11-183, either WT or G23C); hexahistidine (TEV-cleavable); made in house; host or cells: Escherichia coli BL21 (DE)
T1 sequence (P11233 11-183 G23C): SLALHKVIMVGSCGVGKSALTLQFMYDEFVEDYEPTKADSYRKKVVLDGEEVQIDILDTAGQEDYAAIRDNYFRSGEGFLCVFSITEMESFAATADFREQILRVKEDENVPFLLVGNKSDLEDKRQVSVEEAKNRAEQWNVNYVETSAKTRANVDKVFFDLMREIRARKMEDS
Experimental: Hexahistidine-tagged recombinant human RalA (“hexahistidine” disclosed as SEQ ID NO: 49) (residues 11-183, either WT or G23C) was transformed into Escherichia coli (BL21 (DE)). After the bacterial grew to an OD(600) of 0.4-0.6 in Terrific Broth containing 30 mg/L kanamycin at 37° C., induction was carried out at 18° C. using 0.5 mM IPTG and growth was continued at 18° C. for about 18 h. The bacteria were harvested by centrifugation and the obtained pellet was either stored at −80° C. or used freshly for the subsequent steps.
(§1) RALA mutant proteins were produced with one mutation to cysteine at the 23 position (G23C) relative to SEQ ID NO: 8 when optimally aligned. KRAS mutant proteins were produced with one mutation to cysteine at the 12 position (G12C) relative to SEQ ID NO: 1 when optimally aligned. The RALA and KRAS mutants were tested for reactivity (e.g., covalent modification of the mutant) with a panel of competition probes that bind the Switch II binding pocket and covalently modify the substituted amino acid with appropriately placed electrophiles based on modeling/docking studies. One such inhibitor covalently bound to RAS (via G12) is depicted in FIG. 2. Screening was carried out by mass spectrometry on an Agilent RapidFire or ThermoScientific Q Exactive system.

KRAS G12C = target: T2, KRAS G12C (Homo sapiens, UniProt P01116, G12C); assay: Rate constant of covalent reaction of competition probes with KRAS mutant (mass spectrometry); type: binding
T2 construct: made in house
Experimental: as §1

K-Ras D92C = target: T3, K-Ras D92C (Homo sapiens, UniProt P01116, D92C); assay: QQQ mass spectrometry competition assay for K-Ras D92C binding using competition probe CP-008; details: CP-008 (100 nM); test compound over a range of concentrations; incubated for 6 h; FIG. 6
T3 construct: made in house
Experimental: The GDP-loaded K-Ras D92C protein (which also contains a histidine tag) was diluted in a HEPES containing assay buffer shortly before use in the QQQ-assay.
To start the assay an internal nonreactive control compound and competition probe compound (CP-008) were added to the protein solution to form a master mix. The master mix was quickly dispersed in a 96-well plate followed by addition a DMSO stock of the compound of interest. […]
To quench the reaction, the reaction mix was transferred to 2% of formic acid in water (0.2% final in the quenched reaction) in a second plate. After sealing the second plate and quick centrifugation the samples were frozen at −80° C.
The frozen samples were sent on dry ice to Pure Honey Technologies for QQQ-quantitation to determine probe and internal control compound amount in each well. For analysis of the obtained data, the ratio of probe to internal control compound was calculated for each well. The assay window was determined by a negative control (DMSO only, no inhibition) and a positive control (100 μM final of CP-008 at a time point where the probe is fully reacted with protein; assigned 100% inhibition) and allowed the calculation of inhibition of probe depletion by the compound of interest.

Row | SMILES | Rate Constant for Reaction with Indicated Protein, RALA G23C (RALA G23C) [M⁻¹ s⁻¹] | inhibition of competition probe (CP-008) depletion by D92C K-Ras (K-Ras D92C) | Rate Constant for Reaction with Indicated Protein, KRAS G12C (KRAS G12C) [M⁻¹ s⁻¹]
1 | C=CC(=O)N1CCN(c2ncnc3c(F)c(-c4c(O)cccc4F)c(Cl)cc23)CC1 [CP-012] | <1 | – | 310
2 | C=CC(=O)N1CCN(c2ncnc3cc(Cl)c(-c4ccc(Cl)cc4)cc23)CC1 [CP-013] | 10.2 | – | –
3 | C=CC(=O)N1CCN(c2ncnc3cc(Cl)c(-c4ccccc4)cc23)CC1 [CP-014] | 4.0 | – | –
4 | C=CC(=O)N1CCN(c2ncnc3cc(Cl)c(-c4ccc(Br)cc4)cc23)CC1 [CP-015] | 9.0 | – | –
5 | C=CC(=O)N1CCN(c2ncnc3cc(Cl)c(-c4ccc(C#N)cc4)cc23)CC1 [CP-016] | 2.6 | – | –
6 | C=CC(=O)N1CCN(c2ncnc3cc(Cl)c(-c4ccc(O)cc4)cc23)CC1 [CP-017] | 6.0 | – | –
7 | C=CC(=O)N1CCN(c2ncnc3cc(Cl)c(-c4cccs4)cc23)CC1 [CP-018] | 17 | – | –

Continued, in another order:

Row | Rate Constant for Reaction with Indicated Protein, RALA G23C (RALA G23C) [M⁻¹ s⁻¹] | inhibition of competition probe (CP-008) depletion by D92C K-Ras (K-Ras D92C) | SMILES | Rate Constant for Reaction with Indicated Protein, KRAS G12C (KRAS G12C) [M⁻¹ s⁻¹]
8 | 6.3 | – | C=CC(=O)N1CCN(c2ncnc3cc(Cl)c(-c4ccc(Cl)s4)cc23)CC1 [CP-019] | –
9 | 19 | – | C=CC(=O)N1CCN(c2ncnc3cc(Cl)c(-c4ccc(C)s4)cc23)CC1 [CP-020] | –
10 | – | less CP-008 is bound to K-Ras | CC(=O)N1CCN(c2nc(OCCCN(C)C)nc3c(F)c(-c4cc(O)cc5ccccc45)c(Cl)cc23)CC1 [CP-023, 1-(4-(6-chloro-2-(3-(dimethylamino)propoxy)-8-fluoro-7-(3-hydroxynaphthalen-1-yl)quinazolin-4-yl)piperazin-1-yl)ethanone] | –
11 | – | less CP-008 is bound to K-Ras | CN(C)CCCOc1nc(N2CCN(C=O)CC2)c2cc(Cl)c(-c3cc(O)cc4ccccc34)c(F)c2n1 [CP-024, 4-(6-chloro-2-(3-(dimethylamino)propoxy)-8-fluoro-7-(3-hydroxynaphthalen-1-yl)quinazolin-4-yl)piperazine-1-carbaldehyde] | –
